Assay results as given in ChEMBL document CHEMBL5550215, “Discovery of Novel Imidazo[1,2-a]pyridine-Based HDAC6 Inhibitors as an Anticarcinogen with a Cardioprotective Effect” (J Med Chem, 2024).
Activity calls are given as the source filed them. No cut-off for these calls is given here.

Tests used:
[1] = Toxicity in C57BL/6 mouse assessed as appearance of inflammatory cell infiltration at 25 to 50 mg/kg, ip by H and E staining based analysis; assay type: organism-based; conditions: in vivo, dose 25-50 mg/kg
H9c2 [2] = assay: Cardioprotective activity in H2O2 induced myocardial injury in rat H9c2 cells assessed as decrease in cell contraction at 2 to 8 uM; assay type: functional, cell-based; conditions: dose 2-8 µM
H9c2 [3] = assay: Cardioprotective activity in H2O2 induced myocardial injury in rat H9c2 cells assessed as LDH release by absorbance based analysis; assay type: functional, cell-based; conditions: dose <= 8.0 µM
[4] = biological target: T1, Protein deacetylase HDAC6 (Mus musculus) (UniProt Q9Z2V5); assay: In vivo inhibition of HDAC6 in C57BL/6 mouse xenografted with MGC-803 cells assessed as effect on acetylated tubulin level at 25 to 50 mg/kg, ip by Western blot analysis; assay type: functional, organism-based; conditions: dose 25-50 mg/kg
T1 sequence (whole entry): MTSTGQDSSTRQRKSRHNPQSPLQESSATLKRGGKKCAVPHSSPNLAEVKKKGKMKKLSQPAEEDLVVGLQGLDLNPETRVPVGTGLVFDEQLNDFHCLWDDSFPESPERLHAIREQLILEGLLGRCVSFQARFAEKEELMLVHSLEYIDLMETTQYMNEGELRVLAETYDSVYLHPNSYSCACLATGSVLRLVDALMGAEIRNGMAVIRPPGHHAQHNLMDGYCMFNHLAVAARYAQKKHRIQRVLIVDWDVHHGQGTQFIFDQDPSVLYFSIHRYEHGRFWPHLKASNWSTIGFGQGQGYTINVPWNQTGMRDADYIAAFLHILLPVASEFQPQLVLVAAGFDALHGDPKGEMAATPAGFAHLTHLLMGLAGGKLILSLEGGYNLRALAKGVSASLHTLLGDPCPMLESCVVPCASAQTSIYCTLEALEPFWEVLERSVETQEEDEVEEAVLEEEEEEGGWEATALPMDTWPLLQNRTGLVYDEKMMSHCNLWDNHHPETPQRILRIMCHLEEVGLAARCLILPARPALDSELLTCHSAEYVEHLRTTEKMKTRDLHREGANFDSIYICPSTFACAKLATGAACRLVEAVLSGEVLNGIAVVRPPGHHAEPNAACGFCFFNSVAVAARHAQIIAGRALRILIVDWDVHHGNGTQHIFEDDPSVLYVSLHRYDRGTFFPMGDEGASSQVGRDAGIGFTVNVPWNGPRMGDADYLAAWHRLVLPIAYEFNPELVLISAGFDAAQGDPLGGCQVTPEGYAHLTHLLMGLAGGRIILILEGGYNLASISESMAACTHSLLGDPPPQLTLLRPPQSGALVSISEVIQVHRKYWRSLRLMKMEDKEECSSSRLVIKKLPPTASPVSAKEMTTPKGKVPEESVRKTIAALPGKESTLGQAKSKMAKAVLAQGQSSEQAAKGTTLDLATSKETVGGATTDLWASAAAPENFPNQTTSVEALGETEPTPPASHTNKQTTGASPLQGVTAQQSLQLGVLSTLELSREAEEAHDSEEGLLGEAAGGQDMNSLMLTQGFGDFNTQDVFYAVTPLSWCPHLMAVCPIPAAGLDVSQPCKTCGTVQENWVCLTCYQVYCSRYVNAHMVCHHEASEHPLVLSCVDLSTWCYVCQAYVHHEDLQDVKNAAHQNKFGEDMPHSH

H9c2 [5] = assay: Cardioprotective activity in H2O2 induced myocardial injury in rat H9c2 cells assessed as effect on P62 level at upto 8 uM by q-PCR analysis; assay type: functional, cell-based
[6] = Observed apparent volume of distribution in male Sprague-Dawley rat at 7 mg/kg,po measured upto 8 hrs by UPLC-MS/MS analysis; assay type: ADME, organism-based; conditions: in vivo
MGC-803 [7] = assay: Induction of apoptosis in human MGC-803 cells assessed as early apoptotic cells at 2 uM measured after 48 hrs by Annexin V-EGFP and PI staining based flow cytometry analysis (reference value: 0.66%); assay type: functional
Histone deacetylase 1 = Histone deacetylase 1 (Homo sapiens, UniProt Q13547); assay: Induction of thermal stabilization of HDAC1 in human MGC-803 cells at 48 degree C st 20 uM incubated for 4 hrs by CETSA; assay type: cell-based
H9c2 [8] = assay: Cardioprotective activity in H2O2 induced myocardial injury in rat H9c2 cells assessed as effect on HO-1 level at upto 8 uM by q-PCR analysis; assay type: functional, cell-based
AGS = assay: Antiproliferative activity against human AGS cells assessed as inhibition of cell growth by MTT assay
H9c2 [9] = assay: Cardioprotective activity in H2O2 induced myocardial injury in rat H9c2 cells assessed as downregulation of IL-1 beta expression; assay type: functional, cell-based; conditions: dose <= 8.0 µM
MGC-803 [10] = assay: Induction of apoptosis in human MGC-803 cells measured after 48 hrs by Annexin V-EGFP and PI staining based flow cytometry analysis; assay type: functional, cell-based; conditions: dose <= 2.0 µM
H9c2 [11] = assay: Cardioprotective activity against H2O2 induced myocardial damage in rat H9c2 cells harbouring Ad.GFP assessed as increase in cell viability at 8 uM by MTT assay; assay type: functional, cell-based
H9c2 [12] = assay: Cardioprotective activity in H2O2 induced myocardial injury in rat H9c2 cells assessed as cell viability by MTT assay; assay type: functional, cell-based; conditions: dose <= 8.0 µM
MGC-803 [13] = assay: Induction of apoptosis in human MGC-803 cells assessed as late apoptotic cells at 2 uM measured after 48 hrs by Annexin V-EGFP and PI staining based flow cytometry analysis (reference value: 3.16%); assay type: functional
H9c2 [14] = assay: Cardioprotective activity in H2O2 induced myocardial injury in rat H9c2 cells assessed as effect on LC3 level at upto 8 uM by q-PCR analysis; assay type: functional, cell-based
[15] = Cmax in male Sprague-Dawley rat at 7 mg/kg,po measured upto 8 hrs by UPLC-MS/MS analysis; assay type: ADME, organism-based; conditions: in vivo
MGC-803 [16] = assay: Induction of apoptosis in human MGC-803 cells assessed as viable cells at 1 uM measured after 48 hrs by Annexin V-EGFP and PI staining based flow cytometry analysis (reference value: 92.3%); assay type: functional; conditions: read-out: Activity
[17] = Toxicity in C57BL/6 mouse assessed as lesions in myocardial tissue at 25 to 50 mg/kg, ip by H and E staining based analysis; assay type: organism-based; conditions: in vivo, dose 25-50 mg/kg
Mus musculus [18] = assay: Cardioprotective activity against myocardial ischemia/reperfusion induced C57BL/6J mouse model assessed as reduction in IL-18 expression at 2.5 to 10 mg/kg; assay type: functional, organism-based; conditions: dose 2.5-10 mg/kg
Mus musculus [19] = assay: Cardioprotective activity against myocardial ischemia/reperfusion induced C57BL/6J mouse model assessed as alleviation of leukocyte infiltration at 10 mg/kg by H and E staining based analysis; assay type: functional, organism-based
H9c2 [20] = assay: Cardioprotective activity in H2O2 induced myocardial injury in rat H9c2 cells assessed as effect on SOD level at upto 8 uM by q-PCR analysis; assay type: functional, cell-based
Mus musculus [21] = assay: Cardioprotective activity against myocardial ischemia/reperfusion induced C57BL/6J mouse model assessed as reduction in IL-1 beta expression at 2.5 to 10 mg/kg; assay type: functional, organism-based; conditions: dose 2.5-10 mg/kg
MGC-803 [22] = assay: Induction of apoptosis in human MGC-803 cells assessed as necrotic cells at 2 uM measured after 48 hrs by Annexin V-EGFP and PI staining based flow cytometry analysis (reference value: 3.90%); assay type: functional

Histone deacetylase 1, sequence (Q13547 whole entry): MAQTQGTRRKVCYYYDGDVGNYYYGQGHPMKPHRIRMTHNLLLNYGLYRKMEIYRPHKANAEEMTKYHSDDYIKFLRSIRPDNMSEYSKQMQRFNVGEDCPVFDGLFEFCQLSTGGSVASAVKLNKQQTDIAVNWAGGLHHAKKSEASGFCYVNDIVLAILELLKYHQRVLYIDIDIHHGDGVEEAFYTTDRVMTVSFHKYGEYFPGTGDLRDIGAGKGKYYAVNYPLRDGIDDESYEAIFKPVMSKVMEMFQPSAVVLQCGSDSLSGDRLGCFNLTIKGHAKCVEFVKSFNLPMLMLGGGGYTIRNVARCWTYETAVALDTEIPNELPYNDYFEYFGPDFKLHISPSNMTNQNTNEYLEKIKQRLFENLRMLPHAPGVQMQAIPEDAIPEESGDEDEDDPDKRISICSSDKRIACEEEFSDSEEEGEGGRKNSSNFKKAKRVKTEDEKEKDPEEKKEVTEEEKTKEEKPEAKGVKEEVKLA

In the case of `O=C(NO)c1ccc(CNC(=O)c2cc(-c3ccc(F)cc3)cn3ccnc23)cc1`, the Activity [1] is reported as “Non-Toxic”, the Activity (H9c2 [2]) is reported as “Active” and the Activity (H9c2 [3]) is reported as “Active”. The inhibition [4] was “Active”, the Activity (H9c2 [5]) was “inactive” and the Vz [6] was 492216.71 mL/kg. For the same compound, the Activity (MGC-803 [7]) was 0.7%, the Activity (Histone deacetylase 1) was “inactive” and the Activity (H9c2 [8]) was “inactive”. For the same compound, the IC50 (AGS) was over 10 µM, the Activity (H9c2 [9]) was “Dose-Dependent Effect” and the Activity (MGC-803 [10]) was “Dose-Dependent Effect”. The Activity (H9c2 [11]) was “Active”, the Activity (H9c2 [12]) was “Active” and the Activity (MGC-803 [13]) was 24.2%. The Activity (H9c2 [14]) was “inactive”, the Cmax [15] was 27.5 ng/mL and the viability at 1 µM (MGC-803 [16]) was 77.2%. The Activity [17] was “Non-Toxic”, the Activity (Mus musculus [18]) was “Active” and the Activity (Mus musculus [19]) was “Active”. The Activity (H9c2 [20]) was “inactive”, the Activity (Mus musculus [21]) was “Active” and the Activity (MGC-803 [22]) was 4.83%.
